According to patent US8586755B2, “Substituted nicotinamides as KCNQ2/3 modulators” (Grünenthal GmbH, priority 2009, dated 2013):

Molecular target: T1, KCNQ2/3 channels (Homo sapiens, UniProt O43525+O43526)
T1 construct: expressed in transfected cells
Assay: Fluorescence assay using a voltage sensitive dye (fluorimetry)
Assay type: cell-based
Conditions: CHO-K1 cells expressing KCNQ2/3 channels; for EC50: agonistic activity; for Fluorimetry % efficacy (retigabine 50 μM = 100%) / Emax: retigabine 50 μM = 100%; for Emax: read-out: Fluorimetry % efficacy (retigabine 50 μM = 100%)
Procedure: Pharmacological Experiments Fluorescence Assay Using a Voltage Sensitive Dye
Human CHO-K1 cells expressing KCNQ2/3 channels are cultivated adherently at 37° C., 5% CO2 and 95% humidity in cell culture bottles (e.g. 80 cm^2 TC flasks, Nunc) with DMEM-high glucose (Sigma Aldrich, D7777) including 10% FCS (PAN Biotech, e.g. 3302-P270521) or alternatively MEM Alpha Medium (1×, liquid, Invitrogen, #22571), 10% fetal calf serum (FCS) (Invitrogen, #10270-106, heat-inactivated) and the necessary selection antibiotics.
Before being sown out for the measurements, the cells are washed with a 1×DPBS buffer without Ca^2+/Mg^2+ (e.g. Invitrogen, #14190-094) and detached from the bottom of the culture vessel by means of Accutase (PAA Laboratories, #L11-007) (incubation with Accutase for 15 min at 37° C.). The cell count then present is determined using a CASY™ cell counter (TCC model, Schärfe System) in order subsequently to apply, depending on the density optimization for the individual cell line, 20,000-30,000 cells/well/100 μl of the described nutrient medium to 96-well measuring plates of the Corning™ CellBIND™ type (Flat Clear Bottom Black Polystyrene Microplates, #3340). Incubation is then carried out for one hour at room temperature, without gassing or adjusting the humidity, followed by incubation for 24 hours at 37° C., 5% CO2 and 95% humidity.
The voltage-sensitive fluorescent dye from the Membrane Potential Assay Kit (Red™ Bulk format part R8123 for FLIPR, MDS Analytical Technologies™) is prepared by dissolving the contents of a vessel Membrane Potential Assay Kit Red Component A in 200 ml of extracellular buffer (ES buffer, 120 mM NaCl, 1 mM KCl, 10 mM HEPES, 2 mM CaCl2, 2 mM MgCl2, 10 mM glucose; pH 7.4). After removal of the nutrient medium, the cells are washed with 200 μl of ES buffer, then covered with a layer of 100 μl of the dye solution prepared above and incubated for 45 min at room temperature with the exclusion of light.
The fluorescence measurements are carried out with a BMG Labtech FLUOstar™ BMG Labtech NOVOstar™ or BMG Labtech POLARstar™ instrument (525 nm excitation, 560 nm emission, Bottom Read mode). After incubation of the dye, 50 μl of the test substances in the desired concentrations, or 50 μl of ES buffer for control purposes, are introduced into separate cavities of the measuring plate and incubated for 30 min at room temperature while being shielded from light. The fluorescence intensity of the dye is then measured for 5 min and the fluorescence value F1 of each well is thus determined at a given, constant time. 15 μl of a […] KCl solution ([…]) are then added to each well. The change in fluorescence is subsequently measured until all the relevant measured values have been obtained (mainly 5-30 min). At a given time after KCl application, a fluorescence value F2 is determined, in this case at the time of the fluorescence peak.
For calculation, the fluorescence intensity F2 is compared with the fluorescence intensity F1, and the agonistic activity of the target compound on the potassium channel is determined therefrom. F2 and F1 are calculated as follows: […]
In order to determine whether a substance has agonistic activity,
A substance has an agonistic activity on the potassium channel when
[formula] it is possible to conclude that a target compound has agonistic activity if an increase in
[formula] is to be observed as the dosage of the target compound increases.
Calculations of EC50 values are carried out with the aid of ‘Prism v4.0’ software (GraphPad Software™).

EC50 [nM]	Fluorimetry % efficacy (retigabine 50 μM = 100%) [%]	Emax [%]	SMILES
170	132		O=C(NCc1cccs1)c1cccnc1SCCCc1ccccc1 [compound 1]
1350		97	O=C(NCc1cccs1)c1cccnc1SCCCC1CCCCC1 [compound 2, 2-(3-Cyclohexyl-propylsulfanyl)-N-(thiophen-2-yl-methyl)-pyridine-3-carboxylic acid amide]
	53		O=C(CCSc1ncccc1C(=O)NCc1cccs1)c1ccccc1 [compound 3]
772		126	O=C(NCc1cccs1)c1cccnc1SCCOc1cccc(C(F)(F)F)c1 [compound 4, N-(Thiophen-2-yl-methyl)-2-[2-[3-(trifluoromethyl)-phenoxy]-ethylsulfanyl]-pyridine-3-carboxylic acid amide]
435		161	CC(C)CCCSc1ncccc1C(=O)NCc1cccs1 [compound 5, 2-(4-Methyl-pentylsulfanyl)-N-(thiophen-2-yl-methyl)-pyridine-3-carboxylic acid amide]
		91	O=C(NCc1cccs1)c1cccnc1CCCCc1ccccc1 [compound 7, 2-(4-Phenyl-butyl)-N-(thiophen-2-yl-methyl)-pyridine-3-carboxylic acid amide]
		37	O=C(NCC1CCCCC1)c1cccnc1CCCS(=O)(=O)c1ccccc1 [compound 8, 2-[3-(Benzenesulfonyl)-propyl]-N-(cyclohexyl-methyl)-pyridine-3-carboxylic acid amide]
1350		157	O=C(NCC1CCCCC1)c1cccnc1CCCCc1ccccc1 [compound 9, N-(Cyclohexyl-methyl)-2-(4-phenyl-butyl)-pyridine-3-carboxylic acid amide]
		13	O=C(NCc1cccs1)c1cccnc1CCCS(=O)(=O)c1ccccc1 [compound 10, 2-[3-(Benzenesulfonyl)-propyl]-N-(thiophen-2-yl-methyl)-pyridine-3-carboxylic acid amide]
2920		170	O=C(NCc1cccs1)c1cccnc1CCCS(=O)(=O)c1cccc(C(F)(F)F)c1 [compound 12, N-(Thiophen-2-yl-methyl)-2-[3-[[3-(trifluoromethyl)phenyl]sulfonyl]-propyl]-pyridine-3-carboxylic acid amide]
302	200		O=C(NCc1cccs1)c1cccnc1CCCSc1cccc(C(F)(F)F)c1 [compound 13]
74		176	CC(CSc1ncccc1C(=O)NCc1cccs1)Sc1ccccc1 (centres unmarked) [compound 16]
128	176		O=C(NCc1cccs1)c1cccnc1SCCCc1ccc(F)cc1 [compound 17]
111		160	O=C(NCc1cccs1)c1cccnc1SCCCc1cccc(C(F)(F)F)c1 [compound 18, N-(Thiophen-2-yl-methyl)-2-[3-[3-(trifluoromethyl)phenyl]-propylsulfanyl]-pyridine-3-carboxylic acid amide]
37		171	CC(CSc1ncccc1C(=O)NCc1cccs1)Sc1ccc(F)cc1 (centres unmarked) [compound 19, 2-[2-[(4-Fluorophenyl)sulfanyl]-propylsulfanyl]-N-(thiophen-2-yl-methyl)-pyridine-3-carboxylic acid amide]
49		174	CC(CSc1ncccc1C(=O)NCc1cccs1)Sc1cccc(C(F)(F)F)c1 (centres unmarked) [compound 20, N-(Thiophen-2-yl-methyl)-2-[2-[[3-(trifluoromethyl)phenyl]sulfanyl]-propylsulfanyl]-pyridine-3-carboxylic acid amide]
364	126		O=C(NCc1cccs1)c1cccnc1CCCCc1cccc(C(F)(F)F)c1 [compound 21]
2350		150	O=C(NCc1cccs1)c1cccnc1CCCCc1ccc(F)cc1 [compound 22, 2-[4-(4-Fluorophenyl)-butyl]-N-(thiophen-2-yl-methyl)-pyridine-3-carboxylic acid amide]
3770		163	O=C(NCc1cccs1)c1cccnc1CCCSc1ccccc1 [compound 23, 2-(3-Phenylsulfanyl-propyl)-N-(thiophen-2-yl-methyl)-pyridine-3-carboxylic acid amide]
11		122	CC(CSc1ccccc1)Sc1ncccc1C(=O)NCc1cccs1 (centres unmarked) [compound 24, 2-[(1-Methyl-2-phenylsulfanyl-ethyl)sulfanyl]-N-(thiophen-2-yl-methyl)-pyridine-3-carboxylic acid amide]
1020		216	O=C(NCC1CCCCCC1)c1cccnc1CCCCc1cccc(C(F)(F)F)c1 [compound 25, N-(Cycloheptyl-methyl)-2-[4-[3-(trifluoromethyl)phenyl]-butyl]-pyridine-3-carboxylic acid amide]
126		244	O=C(NCC1CC2CCC1C2)c1cccnc1CCCCc1cccc(C(F)(F)F)c1 (centres unmarked) [compound 26, N-(5-Bicyclo[2.2.1]heptanyl-methyl)-2-[4-[3-(trifluoromethyl)phenyl]-butyl]-pyridine-3-carboxylic acid amide]
1570		192	CC(C)CCCSc1ncccc1C(=O)NCC1CC2CCC1C2 (centres unmarked) [compound 28, N-(5-Bicyclo[2.2.1]heptanyl-methyl)-2-(4-methyl-pentylsulfanyl)-pyridine-3-carboxylic acid amide]
275		159	O=C(NCC1CCCCCC1)c1cccnc1CCCSc1ccc(F)cc1 [compound 29, N-(Cycloheptyl-methyl)-2-[3-[(4-fluorophenyl)sulfanyl]-propyl]-pyridine-3-carboxylic acid amide]
630		261	O=C(NCC1CC2CCC1C2)c1cccnc1CCCSc1ccc(F)cc1 (centres unmarked) [compound 30, N-(5-Bicyclo[2.2.1]heptanyl-methyl)-2-[3-[(4-fluorophenyl)sulfanyl]-propyl]-pyridine-3-carboxylic acid amide]
437		98	O=C(NCC1CCCCCC1)c1cccnc1CCCS(=O)(=O)c1cccc(C(F)(F)F)c1 [compound 31, N-(Cycloheptyl-methyl)-2-[3-[[3-(trifluoromethyl)phenyl]sulfonyl]-propyl]-pyridine-3-carboxylic acid amide]
3130		191	O=C(NCC1CC2CCC1C2)c1cccnc1CCCS(=O)(=O)c1cccc(C(F)(F)F)c1 (centres unmarked) [compound 32, N-(5-Bicyclo[2.2.1]heptanyl-methyl)-2-[3-[[3-(trifluoromethyl)phenyl]sulfonyl]-propyl]-pyridine-3-carboxylic acid amide]
451		242	O=C(NCC1CC2CCC1C2)c1cccnc1SCCCc1ccccc1 (centres unmarked) [compound 33, N-(5-Bicyclo[2.2.1]heptanyl-methyl)-2-(3-phenyl-propylsulfanyl)-pyridine-3-carboxylic acid amide]
463		204	O=C(NCC1CC2CCC1C2)c1cccnc1SCCCc1ccc(C(F)(F)F)cc1 (centres unmarked) [compound 34, N-(5-Bicyclo[2.2.1]heptanyl-methyl)-2-[3-[4-(trifluoromethyl)-phenyl]-propylsulfanyl]-pyridine-3-carboxylic acid amide]
242		221	O=C(NCC1CC2CCC1C2)c1cccnc1SCCCc1ccc(Cl)cc1 (centres unmarked) [compound 35, N-(5-Bicyclo[2.2.1]heptanyl-methyl)-2-[3-(4-chlorophenyl)-propylsulfanyl]-pyridine-3-carboxylic acid amide]
